Patent US20180071354A1, “SELECTIVE BREEDING METHOD OF ANTITUMOR/ANTICANCER CAMELLIA SINENSIS STRAIN, AND TEA PRODUCT OF SUCH STRAIN” (FUJIAN AGRICULTURE AND FORESTRY UNIVERSITY, priority 2015, published 2018)

Tests used:
[1] = tested on: human gastric cancer cell line SMMC-7721; assay: In vitro antitumor/anticancer testing (CCK-8), SMMC-7721; type: cell-based; conditions: 48 h
Procedure: (§1) Each of Tea Product 1 and Conventional Tea Product obtained in section A of this example was used to prepare test tea samples according to the method described below. A proper amount of the respective tea product was added into sterile water to prepare a stock solution with a concentration of 100 mg/mL, followed by using a membrane filter with a pore size of 0.22 μm to conduct vacuum filtration and sterilization. The resulting stock solution was diluted with a respective complete medium shown in Table 3 below to form test tea samples with different concentrations. In other words, the thus obtained test tea samples to be used for treating a respective cancer/tumor cell line shown in Table 3 were prepared using the same complete medium as that for the respective cancer/tumor cell line. […] Specifically, each of the aforesaid commercially available agents was subjected to the method described below to prepare comparative test samples. A proper amount of a respective commercially available agent was dissolved in phosphate-buffered saline (PBS) to prepare a stock solution with a concentration of 5 mg/mL, followed by using a membrane filter with a pore size of 0.22 μm to conduct vacuum filtration and sterilization. The resulting stock solution was diluted with a respective complete medium shown in Table 3 below to form comparative test samples with different concentrations. To be specific, the comparative test samples prepared from the respective commercially available agent have the concentrations shown in Table 2 below. The thus obtained comparative test samples to be used for treating a respective cancer/tumor cell line shown in Table 3 were prepared using the same complete medium as that for the respective cancer/tumor cell line. […] The cultivation of each cancer/tumor cell line is described as follows. […] Afterwards, a cell suspension having a cell density of 1.0×10^4 cells/mL was prepared. […] As experimental groups, the tumor/cancer cells of each cell line were treated with the test tea samples prepared from one or more of the tea products and the comparative test samples prepared from one or more of the commercially available agents as obtained in section B of this example (for more detailed information about the tea product(s) and the commercially available product (s) used to treat each cell line, please see Table 4 below). To be specific, 6 to 10 test tea samples prepared from the same tea product and having different concentrations, as well as 6 to 10 comparative test samples prepared from the same commercially available agent and having different concentrations, were utilized to treat the tumor/cancer cells of each cell line. For each experimental group, 6 repetitions of tumor/cancer treatment were performed. For the control group, 100 μL of PBS was added to a well containing the medium and the cancer/tumor cells of the respective cell line. For the blank group, 100 μL of PBS was added to a well containing a complete medium the same as that used for cultivation of the cancer/tumor cells of the respective cell line. After the treatment described above, cultivation was conducted in an incubator (37° C., 100% relative humidity, 5% CO2) for 48 hours. Subsequently, the liquid containing the medium and the sample in the well was removed, and a respective complete medium (shown in Table 3 above) containing 10% CCK-8 (Cell Counting Kit-8)(Dojindo Molecular Technologies, Inc., Cat. No. CK04-13) was added. Cultivation was performed in an incubator (37° C.) for 2 to 4 hours, followed by gently shaking.

[2] = as above; type: cell-based, human; conditions: SMMC-7721; 48 h
Procedure: as §1

[3] = tested on: human squamous cell carcinoma cell line A431; assay: In vitro antitumor/anticancer testing (CCK-8), A431; type: cell-based; conditions: 48 h
Procedure: as §1

[4] = tested on: human leukemia cell line HL-60; assay: In vitro antitumor/anticancer testing (CCK-8), HL-60; type: cell-based; conditions: 48 h
Procedure: as §1

[5] = tested on: human cervical cancer cell line Hela; assay: In vitro antitumor/anticancer testing (CCK-8), Hela; type: cell-based; conditions: 48 h
Procedure: as §1

[6] = tested on: human colon cancer cell line HCT-116; assay: In vitro antitumor/anticancer testing (CCK-8), HCT-116; type: cell-based; conditions: 48 h
Procedure: as §1

[7] = tested on: human gastric cancer cell line BGC-823; assay: In vitro antitumor/anticancer testing (CCK-8), BGC-823; type: cell-based; conditions: 48 h
Procedure: as §1

O=C(O[C@@H]1Cc2c(O)cc(O)cc2O[C@@H]1c1cc(O)c(O)c(O)c1)c1cc(O)c(O)c(O)c1 [EGCG monomer, epigallocatechin gallate]
Percent growth inhibition ([1]; 2.5 μg/mL): 4.93%
Percent growth inhibition ([1]; 5 μg/mL): 3.31%
Percent growth inhibition ([1]; 10 μg/mL): 3.45%
Percent growth inhibition ([1]; 20 μg/mL): 1.33%
Percent growth inhibition ([1]; 40 μg/mL): 6.33%
Percent growth inhibition ([1]; 80 μg/mL): 40.85%
Percent growth inhibition ([1]; 160 μg/mL): 92.58%
Percent growth inhibition ([1]; 320 μg/mL): 98.50%
Percent growth inhibition ([1]; 640 μg/mL): 97.44%
IC50 [2]: IC50 (μg/mL) = 77.41
Percent growth inhibition ([3]; 0.3125 μg/mL): 7.79%
Percent growth inhibition ([3]; 0.625 μg/mL): 13.31%
Percent growth inhibition ([3]; 1.25 μg/mL): 10.00%
Percent growth inhibition ([3]; 2.5 μg/mL): 12.70%
Percent growth inhibition ([3]; 5 μg/mL): 19.18%
Percent growth inhibition ([3]; 10 μg/mL): 24.03%
Percent growth inhibition ([3]; 20 μg/mL): 34.07%
Percent growth inhibition ([3]; 40 μg/mL): 55.14%
Percent growth inhibition ([3]; 80 μg/mL): 30.13%
IC50 ([3]; A431): IC50 (μg/mL) = 29.51
Percent growth inhibition ([4]; 2.5 μg/mL): 5.10%
Percent growth inhibition ([4]; 5 μg/mL): 12.43%
Percent growth inhibition ([4]; 10 μg/mL): 16.22%
Percent growth inhibition ([4]; 20 μg/mL): 27.14%
Percent growth inhibition ([4]; 40 μg/mL): 44.21%
Percent growth inhibition ([4]; 80 μg/mL): 76.96%
Percent growth inhibition ([4]; 160 μg/mL): 73.03%
Percent growth inhibition ([4]; 320 μg/mL): 83.90%
Percent growth inhibition ([4]; 640 μg/mL): 91.13%
IC50 ([4]; HL-60): IC50 (μg/mL) = 44.96
Percent growth inhibition ([5]; 0.3125 μg/mL): 4.13%
Percent growth inhibition ([5]; 0.625 μg/mL): −0.68%
Percent growth inhibition ([5]; 1.25 μg/mL): 1.08%
Percent growth inhibition ([5]; 2.5 μg/mL): −8.94%
Percent growth inhibition ([5]; 5 μg/mL): −6.50%
Percent growth inhibition ([5]; 10 μg/mL): −22.63%
Percent growth inhibition ([5]; 20 μg/mL): −20.22%
Percent growth inhibition ([5]; 40 μg/mL): −23.80%
Percent growth inhibition ([5]; 80 μg/mL): 36.66%
IC50 ([5]; Hela): IC50 (μg/mL) = 101.2
Percent growth inhibition ([6]; 2.5 μg/mL): 10.74%
Percent growth inhibition ([6]; 5 μg/mL): −7.91%
Percent growth inhibition ([6]; 10 μg/mL): −4.12%
Percent growth inhibition ([6]; 20 μg/mL): −1.58%
Percent growth inhibition ([6]; 40 μg/mL): 34.52%
Percent growth inhibition ([6]; 80 μg/mL): 66.98%
IC50 ([6]; HCT-116): IC50 (μg/mL) = 55.72
Percent growth inhibition ([7]; 2.5 μg/mL): −0.82%
Percent growth inhibition ([7]; 5 μg/mL): −1.06%
Percent growth inhibition ([7]; 10 μg/mL): −0.64%
Percent growth inhibition ([7]; 20 μg/mL): 6.47%
Percent growth inhibition ([7]; 40 μg/mL): 28.02%
Percent growth inhibition ([7]; 80 μg/mL): 60.53%
Percent growth inhibition ([7]; 160 μg/mL): 97.87%
Percent growth inhibition ([7]; 320 μg/mL): 98.16%
Percent growth inhibition ([7]; 640 μg/mL): 97.03%
IC50 ([7]; BGC-823): IC50 (μg/mL) = 62.94
